Values quoted from earlier work, collected in US20110105453A1, “Superoxide Dismutase Mimics For The Treatment Of Optic Nerve And Retinal Damage” (ALCON, INC., priority 2003, published 2011).

Legend:
[1] = test system: light-induced retinal damage in albino rats
[2] = test system: NADH-coenzyme Q1 reductase; conditions: uncouples mitochondrial respiration
cytochrome c oxidase = conditions: uncouples mitochondrial respiration
[3] = test system: rat ocular ischemia-reperfusion model; conditions: intravitreal injections (SOD protein)

CC1(C)CC(O)CC(C)(C)N1[O] [4-hydroxy-2,2,6,6-tetramethylpiperidine-1-oxyl]
inhibition of light-induced retinal damage [1]: inhibited light-induced retinal damage

NCCc1c[nH]c2c1C(=O)C(=O)C=C2 [T-4,5-D, tryptamine 4,5-dione]
inhibition of NADH-coenzyme Q1 reductase [2]: irreversible inhibition | inhibition of cytochrome c oxidase (cytochrome c oxidase): irreversible inhibition | inactivation of tryptophan hydroxylase (tryptophan hydroxylase): irreversibly inactivates

CNC(=S)NC [dimethylthiourea]
functional protection [3]: 40%
